Laboratory results taken from patent US20110207796A1, “ALPHA-SYNUCLEIN KINASE” (Elan Pharma International Limited, priority 2008, published 2011).
Where two headings read alike, the source gives them in different places.

Tests used:
[1] = system: synuclein phosphorylation; experiment: overexpression of PLK family members with WT-synuclein in HEK-293 cells, phospho-synuclein ELISA; format: cell-based, human
Experimental: HEK-293 naïve cells were transfected with an expression vector encoding PLK1, PLK2, PLK3, or PLK4 under the control of a CMV promoter, or empty vector, together with an expression vector encoding WT-synuclein. All vectors had the sequence coding for the protein of interest. Transfection was accomplished using Lipofectamine 2000 (Invitrogen, Carlsbad, Calif.) with 0.08 μg vector. Cells were washed and harvested 48 hours post-transfection. A Micro BCA (Pierce) total protein assay and total synuclein and phospho-synuclein ELISAs were performed on each plate of treated cells.

[2] = system: synuclein phosphorylation by endogenous kinase; experiment: kinase inhibitor treatment of rat ventral mesencephalon (RVM) cultures transduced with E46K-synuclein; format: cell-based
Experimental: (§1) Rat Ventral Mesencephalon (RVM) cultures were prepared from E15 Wistar rats. The RVM cultures were cultured for 2 days and transduced with 0.75 MOI E46K-Synuclein lentivirus alone, or 0.75 MOI E46K-Synuclein lentivirus plus 0.75 MOI ca-PLK2 lentivirus. […] Transduced cultures were maintained in neuronal media with B27/1% FBS and 37° C./5% CO2 until treated with inhibitors. On DIV 17 (which corresponds to 15 days after viral transduction of the cultures) cells were treated with inhibitors for two hours. Cells were then harvested as detailed above in neuronal media with B27/1% FBS. A Micro BCA (Pierce) total protein assay, and total synuclein and phospho-synuclein ELISAs were performed on each plate of treated cells using standard methods.

[3] = system: synuclein phosphorylation by constitutively active PLK2 (caPLK2); experiment: kinase inhibitor treatment of RVM cultures transduced with E46K-synuclein plus ca-PLK2; format: cell-based; settings: rat ventral mesencephalon cultures
Experimental: as §1

[4] = system: synuclein phosphorylation (serine-129); experiment: inhibition of synuclein phosphorylation across the cellular paradigms (primary neuronal cultures and 293 cells); format: cell-based, mouse, rat and human; settings: Homo sapiens, HEK293; most of the cellular paradigms / cell types tested; read-out: EC50 inhibition of synuclein phosphorylation, cellular paradigms
PLK2 [5] = target: T1, PLK2 (Homo sapiens, UniProt Q9NYY3); experiment: in vitro biochemical assay of PLK2-driven synuclein phosphorylation; settings: for rank order of potency, Straight Biochemical: rank among 8 inhibitors
Experimental: The reaction was incubated at 37° C. The activity was analyzed by autoradiography.
In vitro biochemical assays using each of the four PLK family members as the kinase to phosphorylate synuclein were conducted.

[6] = system: endogenous kinase (synuclein phosphorylation); experiment: HEK-293 cells overexpressing synuclein with empty vector, inhibition of synuclein phosphorylation; format: cell-based, human; settings: for rank order of potency, Endogenous Kinase (293): Table 19; for EC50: Homo sapiens
Experimental: (§2) All vectors had the sequence coding for the protein of interest. Transfection was accomplished using Lipofectamine 2000 (Invitrogen, Carlsbad, Calif.) with 0.08 μg vector. Cells were washed and harvested 48 hours post-transfection. A Micro BCA (Pierce) total protein assay and total synuclein and phospho-synuclein ELISAs were performed on each plate of treated cells.

PLK3 = target: T2, PLK3 (Homo sapiens, UniProt Q9H4B4); experiment: HEK-293 cells overexpressing synuclein and PLK3, inhibition of synuclein phosphorylation; format: cell-based; settings: for EC50: HEK-293, Example 16, Table 21, read-out: EC50 Based on the Percent Inhibition of Synuclein Phosphorylation, Synuclein + PLK3; for Rank Order of Potency Based on Percent Inhibition of Synuclein Phosphorylation, Synuclein + PLK3: HEK-293, Table 22
T2 construct: expressed in transfected cells; host or cells: HEK-293
Experimental: as §2

PLK4 = target: T3, PLK4 (Homo sapiens, UniProt O00444); experiment: HEK-293 cells overexpressing synuclein and PLK4, inhibition of synuclein phosphorylation; format: cell-based
T3 sequence (O00444 1-970): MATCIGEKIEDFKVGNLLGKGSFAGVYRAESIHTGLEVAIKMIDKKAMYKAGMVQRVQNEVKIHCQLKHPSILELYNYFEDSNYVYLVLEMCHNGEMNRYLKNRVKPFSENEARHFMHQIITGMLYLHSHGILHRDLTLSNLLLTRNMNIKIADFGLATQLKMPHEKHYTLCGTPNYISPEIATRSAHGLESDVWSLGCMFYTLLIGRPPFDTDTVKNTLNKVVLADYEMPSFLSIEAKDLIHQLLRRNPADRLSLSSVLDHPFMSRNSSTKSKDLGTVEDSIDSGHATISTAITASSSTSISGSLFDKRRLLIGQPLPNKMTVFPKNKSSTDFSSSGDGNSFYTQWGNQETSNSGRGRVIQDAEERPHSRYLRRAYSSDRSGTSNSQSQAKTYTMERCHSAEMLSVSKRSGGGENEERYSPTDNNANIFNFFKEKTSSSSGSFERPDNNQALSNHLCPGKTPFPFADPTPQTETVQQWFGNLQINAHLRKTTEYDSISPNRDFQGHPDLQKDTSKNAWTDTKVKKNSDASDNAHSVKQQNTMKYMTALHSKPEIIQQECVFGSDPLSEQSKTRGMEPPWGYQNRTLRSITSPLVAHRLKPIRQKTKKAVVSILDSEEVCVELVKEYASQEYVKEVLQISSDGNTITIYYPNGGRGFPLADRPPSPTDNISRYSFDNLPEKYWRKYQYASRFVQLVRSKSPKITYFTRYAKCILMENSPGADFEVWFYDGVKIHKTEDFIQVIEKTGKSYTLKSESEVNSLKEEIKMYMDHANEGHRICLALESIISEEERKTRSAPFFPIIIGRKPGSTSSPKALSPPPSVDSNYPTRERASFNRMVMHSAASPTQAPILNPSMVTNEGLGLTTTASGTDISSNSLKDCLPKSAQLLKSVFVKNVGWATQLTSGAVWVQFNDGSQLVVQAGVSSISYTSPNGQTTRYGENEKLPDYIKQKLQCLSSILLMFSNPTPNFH
Experimental: as §2

PLK2 [7] = target: T1, PLK2; experiment: HEK-293 cells overexpressing synuclein and PLK2, inhibition of synuclein phosphorylation; format: cell-based; parameters: expressed in transfected cells; host or cells: HEK-293; settings: for rank order of potency, Over-Expressed PLK2 (293): Table 19; for Rank Order of Potency Based on Percent Inhibition of Synuclein Phosphorylation, Synuclein + PLK2: HEK-293, Table 22
Experimental: as §2

[8] = system: synuclein phosphorylation by endogenous kinase; experiment: kinase inhibitor treatment of mouse cortical cultures (MCC), total and phospho-synuclein ELISA; format: cell-based
Experimental: Mouse cortical cultures from fetal (i) Swiss-Webster, (ii) C56BL/6 WT and (iii) C56BL/6 E46K-Synuclein Trangenic mice were prepared and maintained in B27/DMEM/1% Penicillin-Streptomycin at 37° C./10% CO2 for three to fourteen days and then treated with kinase inhibitors.
Cultures were exposed to inhibitors for two hours in B27/DMEM/1% Penicillin-Streptomycin. Cells were immediately washed in 100 μL of PBS plus Mg^2+ and Ca^2+, and harvested in ice-cold CEB minus EGTA plus protease inhibitors, frozen on dry ice and stored at −80° C. until processed. A Micro BCA (Pierce) total protein assay, and total synuclein and phospho-synuclein ELISAs were performed on each plate of treated cells using standard methods.

PLK1 = target: T4, PLK1 (Homo sapiens, UniProt P53350); experiment: HEK-293 cells overexpressing synuclein and PLK1, inhibition of synuclein phosphorylation; format: cell-based
T4 construct: expressed in transfected cells; host or cells: HEK-293
Experimental: as §2

[9] = PLK2-driven synuclein phosphorylation, read-out: IC50 in the in vitro biochemical assay
[10] = HEK293, HEK-293, Example 16, Table 21, read-out: EC50 Based on the Percent Inhibition of Synuclein Phosphorylation, Synuclein + Vector
[11] = 293 cells, Table 18, read-out: EC50, Over-Expressed PLK2 (293)
[12] = E46K-Synuclein transgenic mouse cortical cultures, read-out: EC50, E46K-Syn TG MCC
[13] = WT mouse cortical cultures, read-out: EC50, WT-MCC
[14] = HEK293, 293 cells, Table 18, read-out: EC50, Endogenous Kinase (293)

T2 sequence (Q9H4B4 whole entry): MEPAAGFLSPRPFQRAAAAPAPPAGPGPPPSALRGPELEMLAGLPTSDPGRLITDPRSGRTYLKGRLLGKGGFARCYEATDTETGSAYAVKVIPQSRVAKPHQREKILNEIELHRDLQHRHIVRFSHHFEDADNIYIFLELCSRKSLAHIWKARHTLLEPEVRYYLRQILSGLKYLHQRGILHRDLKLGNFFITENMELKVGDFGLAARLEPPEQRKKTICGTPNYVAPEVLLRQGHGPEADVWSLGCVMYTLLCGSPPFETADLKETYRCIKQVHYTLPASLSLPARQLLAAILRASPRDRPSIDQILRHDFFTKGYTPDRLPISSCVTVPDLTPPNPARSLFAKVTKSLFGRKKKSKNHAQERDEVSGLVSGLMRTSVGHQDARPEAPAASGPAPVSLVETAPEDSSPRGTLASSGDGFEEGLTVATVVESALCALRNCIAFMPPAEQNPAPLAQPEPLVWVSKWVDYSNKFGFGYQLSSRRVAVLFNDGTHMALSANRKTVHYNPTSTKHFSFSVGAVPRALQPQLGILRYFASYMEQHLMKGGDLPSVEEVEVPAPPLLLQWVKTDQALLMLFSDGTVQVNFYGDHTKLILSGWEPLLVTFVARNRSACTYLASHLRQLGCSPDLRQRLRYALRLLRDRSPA
T1 sequence (Q9NYY3 whole entry): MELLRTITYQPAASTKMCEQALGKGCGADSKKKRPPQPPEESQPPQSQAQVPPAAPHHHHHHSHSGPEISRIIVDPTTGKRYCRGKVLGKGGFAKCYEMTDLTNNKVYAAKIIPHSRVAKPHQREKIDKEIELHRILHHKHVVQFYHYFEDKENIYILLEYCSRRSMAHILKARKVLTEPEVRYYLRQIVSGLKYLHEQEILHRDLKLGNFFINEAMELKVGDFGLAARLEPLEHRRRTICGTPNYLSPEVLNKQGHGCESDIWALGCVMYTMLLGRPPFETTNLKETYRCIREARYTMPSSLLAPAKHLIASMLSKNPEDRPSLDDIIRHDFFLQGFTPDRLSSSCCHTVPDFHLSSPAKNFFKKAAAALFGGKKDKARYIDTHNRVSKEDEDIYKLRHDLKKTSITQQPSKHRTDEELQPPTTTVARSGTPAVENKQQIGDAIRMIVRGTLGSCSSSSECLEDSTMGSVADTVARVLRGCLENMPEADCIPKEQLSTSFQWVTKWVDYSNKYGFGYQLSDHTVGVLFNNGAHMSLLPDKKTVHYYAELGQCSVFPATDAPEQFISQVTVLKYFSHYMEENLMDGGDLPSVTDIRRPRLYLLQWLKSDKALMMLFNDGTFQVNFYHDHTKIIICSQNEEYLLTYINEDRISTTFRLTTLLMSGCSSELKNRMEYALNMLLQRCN
T4 sequence (P53350 whole entry): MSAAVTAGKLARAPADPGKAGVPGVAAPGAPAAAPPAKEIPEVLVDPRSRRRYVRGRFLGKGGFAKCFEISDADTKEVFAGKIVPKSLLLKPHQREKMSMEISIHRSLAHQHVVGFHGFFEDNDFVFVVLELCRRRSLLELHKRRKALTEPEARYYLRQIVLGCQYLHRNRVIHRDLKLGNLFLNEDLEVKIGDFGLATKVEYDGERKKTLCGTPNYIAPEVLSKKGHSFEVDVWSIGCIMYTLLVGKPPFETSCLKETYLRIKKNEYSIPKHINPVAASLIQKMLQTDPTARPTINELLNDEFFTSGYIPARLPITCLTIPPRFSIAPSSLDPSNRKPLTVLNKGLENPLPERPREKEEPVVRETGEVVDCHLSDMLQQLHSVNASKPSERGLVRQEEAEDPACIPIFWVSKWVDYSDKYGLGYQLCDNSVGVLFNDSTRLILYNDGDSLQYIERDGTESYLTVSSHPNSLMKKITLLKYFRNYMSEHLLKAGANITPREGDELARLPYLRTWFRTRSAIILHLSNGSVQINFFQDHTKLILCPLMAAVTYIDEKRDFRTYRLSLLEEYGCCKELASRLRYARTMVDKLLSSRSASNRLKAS

Compound	EC50 [2]	EC50 [3]	EC50 [4]	IC50 (PLK2 [5]; [9])	rank order of potency, Straight Biochemical (PLK2 [5])	rank order of potency, Endogenous Kinase (293) ([6]; 293 cells)	EC50 [6, 10]	EC50 (PLK3)	Rank Order of Potency Based on Percent Inhibition of Synuclein Phosphorylation, Synuclein + PLK3 (PLK3)	EC50 (PLK2 [7]; [11])	rank order of potency, Over-Expressed PLK2 (293) (PLK2 [7]; 293 cells)	Rank Order of Potency Based on Percent Inhibition of Synuclein Phosphorylation, Synuclein + PLK2 (PLK2 [7])	EC50 [8, 12]	EC50 [8, 13]	EC50 [6, 14]	other results
Over-Expressed PLK1																Proportion of total synuclein that is phoshorylated at ser-129 ([1]; 48 hours post-transfection, with WT-synuclein): 4.1%; Fold Change in Percent Synuclein Phosphorylation ([1]; relative to endogenous kinase (2.0%)): 2.1
NC(=O)c1sc2c([N+](=O)[O-])cc(C(F)(F)F)cc2[n+]1[O-] [ELN-481080]	~100 µM	25.2 µM	12 to 38 µM	7.7 µM	3	4	> 100 µM	> 100 µM	3	38 µM	5	3				EC50 ([6]; HEK293, read-out: EC50, Endogenous Kinase (293)): ~100 µM; EC50 ([6]; HEK293, read-out: EC50 synuclein phosphorylation, endogenous kinase, previous experiments): ~100 µM; EC50 synuclein phosphorylation, over-expressed PLK3 (PLK3; HEK-293): not reached; inhibition of synuclein phosphorylation, over-expressed PLK3 (PLK3; at concentrations of 30-100 μM): 30-40%; EC50 synuclein phosphorylation, over-expressed PLK4 (PLK4; HEK-293): not reached
CN(C)c1nc2c(Br)c(Br)c(Br)c(Br)c2[nH]1 [DMAT, 2-Dimethylamino-4,5,6,7-tetrabromo-1H-benzimidazole]	20 µM	28.5 µM	16 to 33 µM	2.07 µM	2	3	55.7 µM	37.3 µM	2	18.6 µM	4	2	16.6 µM	18.7 µM	33 µM	rank order of potency, E46K-Syn TG MCC ([8]; E46K-Synuclein transgenic mouse cortical cultures): 4; rank order of potency, Swiss-Webster MCC ([8]; Swiss-Webster mouse cortical cultures): 4; EC50 ([8]; Swiss-Webster mouse cortical cultures, read-out: EC50, Swiss-Webster MCC): 21.6 µM; rank order of potency, WT-MCC ([8]; WT mouse cortical cultures): 4; rank order of potency, RVM E46K-Synuclein [2]: 4; rank order of potency, RVM E46K-Synuclein caPLK2 [3]: 4; Rank Order of Potency Based on Percent Inhibition of Synuclein Phosphorylation, Synuclein + Vector ([6]; HEK-293, Table 22): 2; EC50 ([6]; HEK293, HEK-293, synuclein only, read-out: EC50 synuclein phosphorylation, endogenous kinase): 56 µM; EC50 (PLK1; HEK-293, Example 16, Table 21, read-out: EC50 Based on the Percent Inhibition of Synuclein Phosphorylation, Synuclein + PLK1): 27.2 µM; Rank Order of Potency Based on Percent Inhibition of Synuclein Phosphorylation, Synuclein + PLK1 (PLK1; HEK-293, Table 22): 3; Rank Order of Potency Based on Percent Inhibition of Synuclein Phosphorylation, Synuclein + PLK4 (PLK4; HEK-293, Table 22): 2; EC50 (PLK2 [7]; HEK-293, Example 16, Table 21, read-out: EC50 Based on the Percent Inhibition of Synuclein Phosphorylation, Synuclein + PLK2): 13.9 µM
COC[C@H]1OC(=O)c2coc3c2[C@@]1(C)C1=C(C3=O)[C@@H]2CCC(=O)[C@@]2(C)C[C@H]1OC(C)=O [Wortmannin]	> 100 µM	> 100 µM											> 100 µM	> 100 µM	> 100 µM	IC50 (PLK2 [5]; in vitro PLK2-driven synuclein phosphorylation, read-out: IC50, Straight Biochemical): > 100 µM; EC50 (PLK2 [7]): > 100 µM
